Data from publication PMC3610371, “Subamolide B Isolated from Medicinal Plant Cinnamomum subavenium Induces Cytotoxicity in Human Cutaneous Squamous Cell Carcinoma Cells through Mitochondrial and CHOP-Dependent Cell Death Pathways” (Evidence-based Complementary and Alternative Medicine : eCAM, 2013).
Values joined by “and” are separate entries in the source; they are usually repeats but may differ in a detail not shown here. Identical values can stand only once.

Tests used:
SCC12 cells [1] = assay: SCC12 cell viability after 24 h treatment (Supplementary Figure 3); type: cell-based; conditions: Homo sapiens
Experimental: The effect of subamolide B on cell viability was mostly evaluated using CellTiter 96 AQueous Non-Radioactive Cell Proliferation Assay (MTS assay) kit (Promega, Madison, WI, USA) as previously described. Alternatively, propidium iodide (PI) exclusion assay was employed to determine cell viability. In brief, 4 × 10^5 SCC12 cells were seeded onto 6-well dishes and were subjected to 48 h treatment with subamolide B. Cells were then trypsinized, collected by centrifugation, and washed twice with PBS. Subsequently, cells were stained with 10 μg/ml of PI in PBS for 15 min in the dark, followed by flow cytometry analysis to determine the levels of PI incorporation.
Supplementary Figure Legends (Yang et al.) […]
Supplementary Figure 3. SCC12 cells were resistant to imiquimod-induced cytotoxicity.
SCC12 cells were treated with increasing doses of subamolide B (0~20 µM) (A) or
imiquimod (0~50 µg/ml) (B) for 24 h, and the viability of imiquimod-treated cells was
evaluated thereafter. It is noted that 20 µM (6.897 µg/ml) of subamolide B reduced the
viability of SCC12 cells to 50.47±5.89% compared to the drug-untreated control, whereas
65.00±4.32% of SCC12 cells were still viable after treatment with 50 µg/ml of imiquimod.

A375 (melanoma) cells = assay: Cell viability determination via MTS assay, A375; type: cell-based; conditions: Homo sapiens, A-375; A375, 48 h treatment; read-out: IC50 (reduce cell viability by 50%)
Experimental: (§1) The human cutaneous squamous cell carcinoma cell line SCC12 (kindly provided by Prof. Xiaoqi Wang, Northwestern University, USA) was grown in DMEM/F-12 (1 : 1) medium. The human malignant melanoma cell line A375 (ATCC number: CRL-1619), human epidermoid carcinoma cell line A-431 (ATCC number: CRL-1555), and HEK293T cells (ATCC number: CRL-11268) were grown in DMEM medium, whereas the human basal cell carcinoma cell line BCC-1/KMC [25] was cultured in RPMI1640 medium. […]
(§2) The effect of subamolide B on cell viability was mostly evaluated using CellTiter 96 AQueous Non-Radioactive Cell Proliferation Assay (MTS assay) kit (Promega, Madison, WI, USA) as previously described. […]
(§3) Figure 1 Cytotoxic effect of subamolide B on human skin cancer cell lines. […] 14 days later, the extent of subamolide B-mediated repression of SCC12 colony formation was evaluated by the numbers of colonies grown on culture dishes. […] (c) Quantitative analysis of subamolide B-mediated repression of SCC12 colony formation. The numbers of colonies shown in (b) were counted and the results were presented as the percentage of drug-treated groups compared to the drug-free controls. ***P < 0.001.

[2] = tested on: A-431 (epidermoid carcinoma) cells; assay: Cell viability determination via MTS assay, A-431; type: cell-based; conditions: Homo sapiens; A-431, 48 h treatment; read-out: IC50 (reduce cell viability by 50%)
Experimental: as §1, §2, §3

[3] = tested on: BCC-1/KMC (basal cell carcinoma) cells; assay: Cell viability determination via MTS assay, BCC-1/KMC; type: cell-based; conditions: Homo sapiens, BCC1, 48 h treatment, read-out: IC50 (reduce cell viability by 50%)
Experimental: as §1, §2, §3

[4] = tested on: SCC12 (cutaneous squamous cell carcinoma) cells; assay: Cell viability determination via MTS assay, SCC12; type: cell-based; conditions: Homo sapiens; SCC12, 48 h treatment; read-out: IC50 (reduce cell viability by 50%)
Experimental: as §1, §2, §3

[5] = tested on: CCD-966SK normal skin fibroblasts; assay: Cell viability determination via MTS assay, CCD-966SK; type: cell-based; conditions: Homo sapiens, Skin fibroblast, 48 h treatment, read-out: IC50 (reduce cell viability by 50%)
Experimental: as §1, §2, §3

[6] = tested on: WS1 normal skin fibroblasts; assay: Cell viability determination via MTS assay, WS1; type: cell-based; conditions: Homo sapiens, Skin fibroblast; WS1, 48 h treatment; read-out: IC50 (reduce cell viability by 50%)
Experimental: as §1, §2, §3

[7] = tested on: IMR-90 normal lung fibroblasts; assay: Cell viability determination via MTS assay, IMR-90; type: cell-based; conditions: Homo sapiens; IMR-90, 48 h treatment; read-out: IC50 (reduce cell viability by 50%)
Experimental: as §1, §2, §3

[8] = tested on: MRC-5 normal lung fibroblasts; assay: Cell viability determination via MTS assay, MRC-5; type: cell-based; conditions: Homo sapiens, MRC5; MRC-5, 48 h treatment; read-out: IC50 (reduce cell viability by 50%)
Experimental: as §1, §2, §3

[9] = tested on: WI-38 normal lung fibroblasts; assay: Cell viability determination via MTS assay, WI-38; type: cell-based; conditions: Homo sapiens; WI-38, 48 h treatment; read-out: IC50 (reduce cell viability by 50%)
Experimental: as §1, §2, §3

SCC12 cells [10] = assay: Colony formation assay; type: cell-based, human; conditions: 24 h treatment, then drug-free media 14 days
Experimental: The effect of subamolide B on the long-term survival of SCC12 cells was assessed using colony formation assay in accordance with the reported procedure. […] […] The colonies composed of 50 or more cells were counted under microscopy. At least three independent assays were performed to calculate the numbers of colonies for statistical analysis.
Figure 1 Cytotoxic effect of subamolide B on human skin cancer cell lines. (a) Dose-dependent cytotoxicity of subamolide B. Human skin cancer cell lines, including A375 (melanoma), A-431 (epidermoid carcinoma), BCC-1/KMC (basal cell carcinoma) and SCC12 (cutaneous squamous cell carcinoma), normal human skin fibroblast cell lines CCD-966SK and WS1, and normal human lung fibroblast cell lines IMR-90, MRC-5, and WI-38 were treated with graded doses of subamolide B (0~20 μM), followed by cell viability determination via MTS assay as described in Section 2. […] 14 days later, the extent of subamolide B-mediated repression of SCC12 colony formation was evaluated by the numbers of colonies grown on culture dishes. […] (c) Quantitative analysis of subamolide B-mediated repression of SCC12 colony formation. The numbers of colonies shown in (b) were counted and the results were presented as the percentage of drug-treated groups compared to the drug-free controls. ***P < 0.001.

SCC12 cells [11] = assay: Annexin-V/propidium iodide dual staining assay (flow cytometry); type: cell-based, human; conditions: subamolide B 20 μM, 24 h
Experimental: Annexin V/PI dual staining assay was employed to determine the involvement of apoptosis in subamolide B-induced cell death, using ApoTarget Annexin-V-FITC Apoptosis kit (Biosource, Camarillo, CA, USA) as described previously. If required, the pan-caspase inhibitor z-VAD-fmk (20 μM) was added to SCC12 cells 2 h before subamolide B treatment.
Figure 2 Apoptosis is partly responsible for subamolide B-induced SCC12 cell death. ((a), (b)) Subamolide B induces dose- and time-dependent proteolytic processing/activation of caspases-8, -9, -4, and -3. […] Subamolide B (20 μM) was used to treat SCC12 cells for 24 h without or with cotreatment of the pan-caspase inhibitor z-VAD-fmk (20 μM). […] The levels of apoptotic cells were indicated as the percentage of all cell populations as shown in (d). ***P < 0.001. […]

[12] = tested on: ATF6 transcriptional activity; assay: ATF6 transcriptional activity luciferase reporter assay (p5xATF6-GL3); type: cell-based; conditions: Homo sapiens, SCC12 cells, 24 h, vs drug-untreated control
Excerpt: The ATF6 activity reporter plasmid p5xATF6-GL3 (Addgene plasmid 11976) carries five ATF6 response elements in tandem to drive the expression of firefly luciferase. The human CHOP promoter, which encompasses the region between −947 and +30 (+1 is the transcriptional start site) was PCR-amplified from the genomic DNA of peripheral blood mononuclear cells using the primer pair 5′-[…]-3′ (forward) and 5′-[…]-3′ (reverse). The 978-bp fragment was cloned into the luciferase reporter plasmid pGL4.18 vector (Promega, Madison, WI, USA) to generate the human CHOP promoter reporter plasmid (pCHOP-Luc). Luciferase activity assay was performed using Dual-Luciferase Reporter assay kit (Promega, Madison, WI, USA) as reported previously. Luciferase activity was normalized to Renilla luciferase activity, and final results were expressed as fold induction of the luciferase activity after subamolide B stimulation compared to that of drug-untreated control.
Figure 5 Subamolide B is an ER stress inducer. (a) Subamolide B upregulates signature ER stress markers GRP78 and CHOP. […] The level of CHOP mRNA in SCC12 cells after 24 h treatment with subamolide B (0~20 μM) was assessed by semiquantitative RT-PCR analysis. β-actin was used as the loading control. […] ATF6 transcriptional activity was then evaluated by luciferase activity assay. […]

| Structure (SMILES) | viability at 50 µg/mL (SCC12 cells [1]; SCC12, imiquimod 50 μg/ml, 24 h, read-out: SCC12 cell viability, % of the drug-untreated control) | IC50 (A375 (melanoma) cells) | IC50 [2] | IC50 [3] | IC50 [4] | IC50 [5] | IC50 [6] | IC50 [7] | IC50 [8] | IC50 [9] | SCC12 colony formation, % of the drug-untreated control (SCC12 cells [10]; 10 μM) | SCC12 colony formation, % of the drug-untreated control (SCC12 cells [10]; 20 μM) | level of apoptotic cells (percentage of all cell populations) (SCC12 cells [11]; cotreated with z-VAD-fmk 20 μM) | level of apoptotic cells (percentage of all cell populations) (SCC12 cells [11]; without z-VAD-fmk) | fold induction at 10 µM [12] | viability at 20 µM (SCC12 cells [1]; SCC12, subamolide B 20 μM (6.897 μg/ml), 24 h, read-out: SCC12 cell viability, % of the drug-untreated control) | IC50 (SCC12 cells [1]; SCC12, 24 h treatment, read-out: IC50 (SCC12 cytotoxicity)) |
| --- | --- | --- | --- | --- | --- | --- | --- | --- | --- | --- | --- | --- | --- | --- | --- | --- | --- |
| CC(C)Cn1cnc2c(N)nc3ccccc3c21 [imiquimod, reference compound] | 65 ± 4.32% |  |  |  |  |  |  |  |  |  |  |  |  |  |  |  |  |
| CCCCCCCCCCCCC/C=C1/C(=O)O[C@@](C)(OC)[C@@H]1O [subamolide B, (3E,4R,5R)-3-tetradecylidene-4-hydroxy-5-methoxy-5-methyl-butanolide] |  | 17.6 µM | 13.3 µM | > 20 µM | 9.12 µM | > 20 µM | > 20 µM | > 20 µM | > 20 µM | > 20 µM | 58.93 ± 2.40% | 28.20 ± 10.87% | 18.6 ± 0.42% | 32.55 ± 3.65% | 16.1 ± 2.06 | 50.5 ± 5.89% | 6.9 µg/mL and 20.3 µM |
